The source made the active and inactive calls.

The target of test [1] is Mothers against decapentaplegic homolog 3 (Homo sapiens, UniProt P84022). In words: Smad3 binding inhibitors, lysate ELISA, dose response, cell lysate, secondary confirmation, chemiluminescent ELISA, HEK293 lysate (AID 1058). Type of test: functional. (In general: An ELISA detects its analyte on a solid surface through an enzyme-linked reagent.)
For test [2], the target named is Melanin-concentrating hormone receptor 1 (Homo sapiens, UniProt Q99705). The experiment in a line: Late-stage fluorescence-based counterscreen for antagonists of the G-protein coupled receptor 7 (GPR7): cell-based dose response assay to identify antagonists of the melanin-concentrating hormone receptor 1 (MCHR1). [Related pubchem assays (depositor defined):AID1861, AID1880, AID1952, AID2148, AID2251, AID2257, AID485339]. Type of test: functional. Background: Counterscreens check selectivity or assay interference.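 Also: stimulated with 30 nM MCH peptide agonist.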

Test [3] is described as follows: inhibitors of intracellular T. cruzi replication, confirmation, NIH3T3 host cells, beta-gal luminescence (AID 2044).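 Also: intracellular parasites grown in NIH/3T3 mouse fibroblasts as host cells; luminescent beta-galactosidase reporter signal from transgenic T. cruzi replicating inside host cells; inhibitors lower the luminescence signal.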 The test is classed as functional, cell-based.
Test [4] concerns the target Neurotensin receptor type 1 (Homo sapiens, UniProt P30989). Type of test: functional.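 Also: Image-based confirmatory dose-response assay measuring agonist activity at NTR1; NTR1-expressing U2OS osteosarcoma cells imaged for beta-arrestin GFP spot formation; agonist potency where compounds increase beta-arrestin recruitment.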
Test [5] can be described thus: cytotoxicity toward NIH3T3 fibroblasts, dose response, counter-screen, cell-based, ATP luminescence, mouse fibroblasts (AID 2010).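 Also: cells exposed to compound for about 90 hours before reading.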 The test is classed as functional.
Test [6] concerns BJ. In words: cytotoxicity toward BJ-TERT-LT-ST fibroblasts, dose response, cell-based, RAS-independent, luminescence (AID 1935).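 Also: BJ fibroblasts immortalized with TERT plus LT and ST oncogenes.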 Type of test: functional. The conditions noted are these: Homo sapiens.
Test [7] relates to BJ. The experiment in a line: cytotoxicity toward BJ-TERT fibroblasts, dose response, cell-based, RAS-independent, luminescence (AID 1933). The test is classed as functional. The conditions noted are these: Homo sapiens.
Test [8] deals with G2/mitotic-specific cyclin-B1 (Homo sapiens, UniProt P14635). The experiment in a line: Counterscreen assay for inhibitors of Wee1 degradation: dose response cell-based assay to identify inhibitors of cyclin B degradation. [Related pubchem assays: 1410, 1321 ]. Type of test: functional.
Test [9] can be described thus: cytotoxicity toward DRD oncogenic fibroblasts, dose response, cell-based, non-viral oncogenic, luminescence (AID 1934). The conditions noted are these: Homo sapiens. Type of test: functional.
In a further test the target is Wee1-like protein kinase (Homo sapiens, UniProt P30291). In words: Dose Response Cell-based Assay for Inhibitors of Wee1 Degradation. [Related pubchem assays: 1410, 1321 ]. The test is classed as functional.
Test [10] is described as follows: Luminescence Cell-Based Dose Retest to Confirm Inhibitors of Cancer Stem Cells. [Related pubchem assays (depositor defined):AID2717, AID2721]. The test is classed as functional. The conditions noted are these: Homo sapiens.
The test system of test [11] is BJ. The experiment in a line: cells. The conditions noted are these: Homo sapiens. The test is classed as functional, cell-based.
In test [12] the target is T1, Heat shock factor protein 1 (Mus musculus, UniProt P38532).
T1 sequence (P38532 whole entry): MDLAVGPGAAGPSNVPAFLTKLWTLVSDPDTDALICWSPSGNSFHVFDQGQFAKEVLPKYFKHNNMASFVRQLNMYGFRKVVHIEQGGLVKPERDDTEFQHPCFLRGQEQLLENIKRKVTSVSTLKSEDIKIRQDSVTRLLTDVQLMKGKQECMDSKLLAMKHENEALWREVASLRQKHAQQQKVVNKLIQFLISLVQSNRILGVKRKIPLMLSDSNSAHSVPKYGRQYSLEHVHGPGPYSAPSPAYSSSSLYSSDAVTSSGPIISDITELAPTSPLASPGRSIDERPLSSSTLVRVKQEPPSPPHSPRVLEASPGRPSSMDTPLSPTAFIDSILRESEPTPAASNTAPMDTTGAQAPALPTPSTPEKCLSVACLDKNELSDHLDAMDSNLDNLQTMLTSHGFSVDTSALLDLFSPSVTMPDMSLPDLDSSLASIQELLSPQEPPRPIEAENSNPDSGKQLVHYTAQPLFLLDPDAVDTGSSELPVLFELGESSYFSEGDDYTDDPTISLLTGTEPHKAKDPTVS
The experiment in a line: HSF1 potentiators in luciferase reporter cells, confirmation, cell-based, NIH3T3, luminescence, dose retest (AID 435004).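 Also: stress induced by proteasome inhibitor MG132 added 30 min after compound; luciferase reporter driven by HSF1 response element in NIH3T3 cells; actives raise luminescence as potentiators of the MG132 stress response.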 The test is classed as functional. (A reporter such as luciferase makes a cellular process visible.)

For test [13], the target named is Peroxisome proliferator-activated receptor gamma/Nuclear receptor corepressor 2 (Homo sapiens, UniProt P37231+Q9Y618). The test is classed as functional.
Test [14] addresses Photoreceptor-specific nuclear receptor (Homo sapiens, UniProt Q9Y5X4). The test is classed as functional.
Test [15] deals with Metabotropic glutamate receptor 4 (Homo sapiens, UniProt Q14833). In words: Modulation of the Metabotropic Glutamate Receptor mGluR4: Potency at human mGluR4. Modulation of intracellular Ca2+ using Fluo-4, AM, in CHO expressing recombinant receptor [Related pubchem assays (depositor defined):AID2437, AID2807]. The test is classed as functional, cell-based.
Test [16] addresses Metabotropic glutamate receptor 4 (Rattus norvegicus, UniProt P31423). The experiment in a line: Modulation of the Metabotropic Glutamate Receptor mGluR4: Rat PAM Potency. [Related pubchem assays (depositor defined):AID2437, AID2807]. The test is classed as functional.
The test system of a further test is HeLa. In words: HeLa cell cytotoxicity, dose response, cytotoxicity control, 24 h, cherry-picked samples (AID 504726).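 Also: potency for cytotoxicity as loss of luminescence signal.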 The conditions noted are these: Homo sapiens. The test is classed as functional, cell-based.
Test [17] deals with T2, Ion channel NompC (Danio rerio, UniProt Q7T1G6). In words: TRPML3 and TRPML2 channel agonists, cell-based, patch clamp, Fura-2 profiling panel, panel member TRPN1 Dose Response (AID 2116).
A further test has as its target Mucolipin-3 (Homo sapiens, UniProt Q8TDD5). In words: Dose response cell-based high-throughput screening assay for agonists of the transient receptor potential channel ML3 (TRPML3). [Related pubchem assays: 1526, 1424, 1448 ]. The test is classed as functional.
In test [18] the target is T3, Corticotropin-releasing factor receptor 2/Corticotropin-releasing factor-binding protein (Homo sapiens, UniProt P24387+Q13324).
T3 sequence (Q13324 whole entry): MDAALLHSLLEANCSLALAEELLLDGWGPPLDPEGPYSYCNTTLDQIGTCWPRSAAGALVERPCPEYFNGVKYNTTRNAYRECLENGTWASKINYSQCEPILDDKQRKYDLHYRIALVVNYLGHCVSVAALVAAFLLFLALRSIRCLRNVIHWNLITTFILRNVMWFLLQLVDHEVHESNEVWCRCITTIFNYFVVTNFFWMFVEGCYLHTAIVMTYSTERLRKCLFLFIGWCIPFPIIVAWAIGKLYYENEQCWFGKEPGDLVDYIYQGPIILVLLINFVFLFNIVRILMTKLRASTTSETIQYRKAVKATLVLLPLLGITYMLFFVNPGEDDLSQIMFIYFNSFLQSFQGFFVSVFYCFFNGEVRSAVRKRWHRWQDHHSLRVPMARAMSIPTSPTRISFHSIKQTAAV
T3 sequence (P24387 whole entry): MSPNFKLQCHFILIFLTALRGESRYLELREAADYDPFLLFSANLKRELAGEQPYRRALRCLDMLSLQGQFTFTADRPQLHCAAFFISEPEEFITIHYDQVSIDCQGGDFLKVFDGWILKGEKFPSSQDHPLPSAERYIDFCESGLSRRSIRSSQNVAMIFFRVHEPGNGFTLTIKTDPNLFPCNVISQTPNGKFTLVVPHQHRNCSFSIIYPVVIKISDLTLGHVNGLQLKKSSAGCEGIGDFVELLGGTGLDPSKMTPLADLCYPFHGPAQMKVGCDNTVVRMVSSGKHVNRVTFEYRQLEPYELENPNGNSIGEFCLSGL
In words: activators of CRF receptor 2 with binding protein – uHTS hits, confirmation (AID 602473). Type of test: functional. The conditions noted are these: read-out: EC50_Mean.

Test [19] deals with T2, Ion channel NompC. The experiment in a line: Fluorescence counterscreen assay for TRPML3 agonists: dose response cell-based high-throughput screening assay to identify agonists of the transient receptor potential channel N1 (TRPN1). [Related pubchem assays: 1526, 1424, 1448 ]. The test is classed as functional.
For another test, the target named is Cytochrome P450 2C9 (Homo sapiens, UniProt P11712). The conditions noted are these: Potency.
For test [20], the target named is C-C chemokine receptor type 6 (Homo sapiens, UniProt P51684). The experiment in a line: CCR6 receptor antagonists, dose response, cell-based, luminescent beta-arrestin readout (AID 504728). The test is classed as functional.
The target of test [21] is T4, Short transient receptor potential channel 4 (Mus musculus, UniProt Q9QUQ5).
T4 sequence (Q9QUQ5 whole entry): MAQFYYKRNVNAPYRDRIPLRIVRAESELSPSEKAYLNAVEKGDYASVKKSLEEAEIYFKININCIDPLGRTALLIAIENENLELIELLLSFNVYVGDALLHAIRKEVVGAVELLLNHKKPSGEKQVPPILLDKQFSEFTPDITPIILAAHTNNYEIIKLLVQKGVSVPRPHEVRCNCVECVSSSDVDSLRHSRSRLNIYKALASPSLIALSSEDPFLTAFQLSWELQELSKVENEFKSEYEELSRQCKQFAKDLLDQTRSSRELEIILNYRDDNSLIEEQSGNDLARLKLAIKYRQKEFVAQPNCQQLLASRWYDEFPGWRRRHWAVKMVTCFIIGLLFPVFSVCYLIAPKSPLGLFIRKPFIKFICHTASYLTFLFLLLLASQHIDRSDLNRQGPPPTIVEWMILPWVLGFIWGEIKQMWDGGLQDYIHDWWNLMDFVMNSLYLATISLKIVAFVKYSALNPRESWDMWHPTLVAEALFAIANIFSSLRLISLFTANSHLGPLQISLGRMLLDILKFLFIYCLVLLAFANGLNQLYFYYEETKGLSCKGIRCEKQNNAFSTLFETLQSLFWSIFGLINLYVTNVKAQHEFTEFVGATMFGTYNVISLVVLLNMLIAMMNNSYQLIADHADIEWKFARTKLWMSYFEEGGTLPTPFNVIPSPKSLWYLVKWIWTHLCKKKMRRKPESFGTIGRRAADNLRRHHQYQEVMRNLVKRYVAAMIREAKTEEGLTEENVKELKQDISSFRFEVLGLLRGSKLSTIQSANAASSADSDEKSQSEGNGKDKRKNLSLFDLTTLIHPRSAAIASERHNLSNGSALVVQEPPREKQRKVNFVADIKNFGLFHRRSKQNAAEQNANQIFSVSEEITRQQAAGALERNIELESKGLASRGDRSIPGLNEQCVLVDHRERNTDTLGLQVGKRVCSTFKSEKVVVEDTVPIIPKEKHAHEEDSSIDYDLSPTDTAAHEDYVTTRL
The experiment in a line: mouse TRPC4 channel activators, dose response, cell-based, HEK293 TRPC4/mu-opioid, Fluo-4 calcium (AID 434937). Type of test: functional.

The next test has as its target Beta-galactosidase (Escherichia coli, UniProt Q8VNN2). The experiment in a line: beta-galactosidase enzyme inhibitors and activators, dose response, artefact control for CCR6 antagonist project, biochemical, E. coli enzyme, set 3 (AID 504712). Type of test: functional.
Test [22] addresses Acyl-homoserine lactone acylase PvdQ (Pseudomonas aeruginosa (strain LESB58), UniProt Q9I194). The experiment in a line: P. aeruginosa PvdQ acylase inhibitors, dose response, biochemical, fluorescence, plate reader and imaging, cherry-picks (AID 493231).

T2 sequence (Q7T1G6 whole entry): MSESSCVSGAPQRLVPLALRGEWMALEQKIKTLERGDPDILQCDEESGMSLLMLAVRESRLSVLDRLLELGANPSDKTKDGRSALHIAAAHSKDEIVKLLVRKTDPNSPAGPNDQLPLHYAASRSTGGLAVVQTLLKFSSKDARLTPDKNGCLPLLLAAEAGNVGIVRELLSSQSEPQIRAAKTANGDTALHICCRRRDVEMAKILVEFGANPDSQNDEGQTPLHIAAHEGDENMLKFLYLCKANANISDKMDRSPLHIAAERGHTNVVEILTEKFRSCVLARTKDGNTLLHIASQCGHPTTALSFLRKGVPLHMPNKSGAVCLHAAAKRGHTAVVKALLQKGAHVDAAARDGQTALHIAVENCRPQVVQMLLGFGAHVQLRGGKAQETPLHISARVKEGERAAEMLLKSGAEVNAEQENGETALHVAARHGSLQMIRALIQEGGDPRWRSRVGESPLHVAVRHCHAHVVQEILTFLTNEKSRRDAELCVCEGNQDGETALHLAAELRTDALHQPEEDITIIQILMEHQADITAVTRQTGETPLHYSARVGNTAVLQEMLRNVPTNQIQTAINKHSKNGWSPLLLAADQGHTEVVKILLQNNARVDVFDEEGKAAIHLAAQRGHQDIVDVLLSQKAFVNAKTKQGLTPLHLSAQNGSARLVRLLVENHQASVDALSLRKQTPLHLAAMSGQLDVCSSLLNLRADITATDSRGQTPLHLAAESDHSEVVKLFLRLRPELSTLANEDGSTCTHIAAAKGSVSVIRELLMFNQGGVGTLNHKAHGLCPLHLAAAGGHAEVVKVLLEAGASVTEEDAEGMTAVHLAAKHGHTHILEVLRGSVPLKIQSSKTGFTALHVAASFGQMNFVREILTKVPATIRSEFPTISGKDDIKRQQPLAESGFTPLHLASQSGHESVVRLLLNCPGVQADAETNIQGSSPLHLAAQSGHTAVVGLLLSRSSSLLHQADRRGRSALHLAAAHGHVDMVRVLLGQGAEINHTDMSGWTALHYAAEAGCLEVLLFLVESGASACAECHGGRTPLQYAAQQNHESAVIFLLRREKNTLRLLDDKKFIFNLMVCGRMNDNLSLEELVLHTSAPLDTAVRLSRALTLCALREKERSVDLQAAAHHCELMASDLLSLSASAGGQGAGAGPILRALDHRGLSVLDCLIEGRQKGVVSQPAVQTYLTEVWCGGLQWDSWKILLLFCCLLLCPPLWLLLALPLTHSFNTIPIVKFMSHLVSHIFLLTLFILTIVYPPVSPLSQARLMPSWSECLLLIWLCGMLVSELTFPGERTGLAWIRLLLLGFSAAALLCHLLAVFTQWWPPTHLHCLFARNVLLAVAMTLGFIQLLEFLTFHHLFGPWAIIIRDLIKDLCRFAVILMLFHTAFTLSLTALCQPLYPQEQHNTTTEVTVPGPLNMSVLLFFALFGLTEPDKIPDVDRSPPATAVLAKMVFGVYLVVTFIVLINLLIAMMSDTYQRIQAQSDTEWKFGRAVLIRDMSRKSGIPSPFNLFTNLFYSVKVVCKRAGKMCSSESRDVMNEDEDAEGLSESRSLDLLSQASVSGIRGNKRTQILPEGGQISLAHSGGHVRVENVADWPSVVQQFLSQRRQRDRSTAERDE
Mothers against decapentaplegic homolog 3, sequence (P84022 whole entry): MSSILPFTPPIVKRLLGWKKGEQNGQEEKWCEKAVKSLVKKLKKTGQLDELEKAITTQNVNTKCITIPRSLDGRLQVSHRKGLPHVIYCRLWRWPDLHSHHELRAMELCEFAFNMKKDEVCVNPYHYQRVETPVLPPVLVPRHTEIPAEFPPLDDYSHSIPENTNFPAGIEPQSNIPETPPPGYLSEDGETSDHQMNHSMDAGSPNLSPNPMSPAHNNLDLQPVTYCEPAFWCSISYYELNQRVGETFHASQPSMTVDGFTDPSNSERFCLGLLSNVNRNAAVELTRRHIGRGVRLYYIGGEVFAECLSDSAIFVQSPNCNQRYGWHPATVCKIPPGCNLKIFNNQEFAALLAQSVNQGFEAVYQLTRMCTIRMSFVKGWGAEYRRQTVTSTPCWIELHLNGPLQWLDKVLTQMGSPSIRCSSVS
Peroxisome proliferator-activated receptor gamma/Nuclear receptor corepressor 2, sequence (P37231 whole entry): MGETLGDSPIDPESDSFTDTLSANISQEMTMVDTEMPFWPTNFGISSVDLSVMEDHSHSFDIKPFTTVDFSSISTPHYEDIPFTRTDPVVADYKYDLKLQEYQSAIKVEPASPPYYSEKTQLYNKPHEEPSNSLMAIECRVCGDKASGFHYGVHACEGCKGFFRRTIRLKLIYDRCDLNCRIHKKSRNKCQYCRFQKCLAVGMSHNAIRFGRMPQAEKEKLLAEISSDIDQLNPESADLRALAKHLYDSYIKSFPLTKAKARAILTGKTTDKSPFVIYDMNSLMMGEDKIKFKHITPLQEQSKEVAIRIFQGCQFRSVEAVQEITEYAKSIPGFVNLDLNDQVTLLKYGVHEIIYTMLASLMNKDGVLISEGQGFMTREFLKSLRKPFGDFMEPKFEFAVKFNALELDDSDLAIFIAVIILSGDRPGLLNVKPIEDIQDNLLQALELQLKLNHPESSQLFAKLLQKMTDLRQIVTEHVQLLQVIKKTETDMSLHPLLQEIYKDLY
Peroxisome proliferator-activated receptor gamma/Nuclear receptor corepressor 2, sequence (Q9Y618 whole entry): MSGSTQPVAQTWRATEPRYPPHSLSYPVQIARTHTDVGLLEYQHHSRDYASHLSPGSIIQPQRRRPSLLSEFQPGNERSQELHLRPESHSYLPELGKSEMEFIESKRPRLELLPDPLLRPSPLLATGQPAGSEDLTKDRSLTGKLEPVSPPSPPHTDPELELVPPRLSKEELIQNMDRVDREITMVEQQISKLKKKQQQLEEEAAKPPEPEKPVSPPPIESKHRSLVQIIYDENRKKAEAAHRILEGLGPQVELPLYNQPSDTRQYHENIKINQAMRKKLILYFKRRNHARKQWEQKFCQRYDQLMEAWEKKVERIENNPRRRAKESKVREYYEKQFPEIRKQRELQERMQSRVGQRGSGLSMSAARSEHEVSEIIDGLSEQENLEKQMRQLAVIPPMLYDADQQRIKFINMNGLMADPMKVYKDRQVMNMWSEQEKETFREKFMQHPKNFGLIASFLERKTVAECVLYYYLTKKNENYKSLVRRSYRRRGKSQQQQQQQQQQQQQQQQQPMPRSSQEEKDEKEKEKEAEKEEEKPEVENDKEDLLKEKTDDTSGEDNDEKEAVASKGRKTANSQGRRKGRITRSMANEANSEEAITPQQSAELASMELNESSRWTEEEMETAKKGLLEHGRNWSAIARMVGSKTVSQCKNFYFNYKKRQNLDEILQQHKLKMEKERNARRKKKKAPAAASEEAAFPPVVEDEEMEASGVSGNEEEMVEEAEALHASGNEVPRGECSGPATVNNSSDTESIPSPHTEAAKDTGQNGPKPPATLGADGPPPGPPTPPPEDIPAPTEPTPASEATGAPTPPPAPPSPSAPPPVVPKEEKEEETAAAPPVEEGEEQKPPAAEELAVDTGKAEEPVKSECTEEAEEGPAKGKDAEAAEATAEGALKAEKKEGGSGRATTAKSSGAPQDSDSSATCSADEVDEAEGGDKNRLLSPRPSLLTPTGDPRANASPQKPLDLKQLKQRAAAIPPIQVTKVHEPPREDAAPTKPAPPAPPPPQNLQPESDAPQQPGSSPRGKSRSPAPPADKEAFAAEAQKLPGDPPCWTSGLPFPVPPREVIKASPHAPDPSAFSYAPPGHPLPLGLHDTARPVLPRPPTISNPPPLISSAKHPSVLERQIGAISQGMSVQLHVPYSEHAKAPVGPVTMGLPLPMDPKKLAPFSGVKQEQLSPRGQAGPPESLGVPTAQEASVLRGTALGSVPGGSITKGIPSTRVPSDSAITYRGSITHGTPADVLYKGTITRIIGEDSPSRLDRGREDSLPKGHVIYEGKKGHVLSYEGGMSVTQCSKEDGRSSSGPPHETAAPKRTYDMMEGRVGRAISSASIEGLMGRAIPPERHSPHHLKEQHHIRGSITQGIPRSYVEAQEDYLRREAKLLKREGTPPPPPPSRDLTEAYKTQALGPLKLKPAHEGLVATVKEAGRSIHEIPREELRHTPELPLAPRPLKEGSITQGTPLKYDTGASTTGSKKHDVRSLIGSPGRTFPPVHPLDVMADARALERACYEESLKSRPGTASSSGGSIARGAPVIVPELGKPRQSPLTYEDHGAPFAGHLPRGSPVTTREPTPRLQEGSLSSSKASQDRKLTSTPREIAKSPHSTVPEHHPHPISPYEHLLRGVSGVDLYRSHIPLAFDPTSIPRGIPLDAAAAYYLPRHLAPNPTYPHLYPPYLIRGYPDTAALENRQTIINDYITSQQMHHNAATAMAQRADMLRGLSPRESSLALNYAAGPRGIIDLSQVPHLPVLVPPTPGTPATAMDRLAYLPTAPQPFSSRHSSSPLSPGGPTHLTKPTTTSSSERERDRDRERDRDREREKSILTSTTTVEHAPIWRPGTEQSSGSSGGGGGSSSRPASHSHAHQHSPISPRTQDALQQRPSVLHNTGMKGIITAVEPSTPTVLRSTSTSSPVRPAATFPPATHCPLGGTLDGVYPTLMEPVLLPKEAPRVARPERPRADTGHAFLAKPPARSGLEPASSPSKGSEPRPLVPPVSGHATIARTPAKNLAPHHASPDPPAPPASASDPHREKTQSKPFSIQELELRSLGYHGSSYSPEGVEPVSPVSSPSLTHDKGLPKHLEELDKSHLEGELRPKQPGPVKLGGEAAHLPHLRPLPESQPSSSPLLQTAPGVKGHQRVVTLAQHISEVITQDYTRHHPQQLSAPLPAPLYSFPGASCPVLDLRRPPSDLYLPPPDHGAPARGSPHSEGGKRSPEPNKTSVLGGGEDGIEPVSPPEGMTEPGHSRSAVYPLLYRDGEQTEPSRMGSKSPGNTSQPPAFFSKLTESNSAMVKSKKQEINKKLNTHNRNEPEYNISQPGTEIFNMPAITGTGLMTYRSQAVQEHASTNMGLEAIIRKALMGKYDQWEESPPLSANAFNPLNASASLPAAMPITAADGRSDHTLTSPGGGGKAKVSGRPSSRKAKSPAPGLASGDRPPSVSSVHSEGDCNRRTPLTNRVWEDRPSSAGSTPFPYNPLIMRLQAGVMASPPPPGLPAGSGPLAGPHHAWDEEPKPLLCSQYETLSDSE

As a reminder, the IC50 is the concentration that gives 50% inhibition. As to `COc1cccc(C(c2cc3c(cc2O)OCO3)N2CCN(C(c3cc4c(cc3O)OCO4)c3cccc(OC)c3O)CC2)c1O` (configuration not stated), the IC50 in [1] is given as > 40 µM (not active).

`COc1ccc(Oc2c(Cl)cnn(-c3cccc(C(F)(F)F)c3)c2=O)cc1`: the IC50 in test [2] was 2.6 µM (active).

On to `O=C(Nc1ccc([N+](=O)[O-])cc1)Nc1ccc(N2CCOCC2)c2nonc12`, for which the EC50 was 3.77 µM (active) in test [3], > 40 µM (inactive) in test [4] and > 30 µM (not active) in test [5].

Broadly, the AC50 is the concentration at which the activity in the assay is half-maximal. Turning to `Cc1ccc(/C=N/NC(=O)c2ccc3c(c2)OCCO3)s1`, the EC50 in the test on BJ [6] was > 150 µM (inconclusive); in the test on BJ [7] it was 12.4 µM (active); in [8], > 49.7 µM (not active); in [9], 17.9 µM (active); on Wee1-like protein kinase, > 49.7 µM (not active); in the test on BJ [11] it was 140 µM (active). Besides, the AC50 in test [10] is 1.48 µM (active).

Consider `COc1cc(C2C(C(=O)c3cc4ccccc4o3)=C(O)C(=O)N2c2cc(C)on2)cc(OC)c1OC` (configuration not stated), for which, in [12], the EC50 is > 260 µM (inactive). Moreover, the IC50 in [13] was 4.1 µM (active); in [14] it was > 39.8 µM (not active).

On to `O=C(Nc1ccc(Cl)c(Cl)c1)c1ccno1`, for which the EC50 is 11.8 µM (active) in test [15] and 11.1 µM (active) in [16].

Consider `O=c1c2ccccc2nc(/C=C\c2ccccc2[N+](=O)[O-])n1-c1ccccc1O`, for which the AC50 with HeLa was 94.2 µM (active).

`O=S(=O)(NC1CCCCC1N1CCOCC1)c1ccc(Cl)cc1` (configuration not stated): the EC50 was 14 µM (inactive) at Ion channel NompC [17], 0.823 µM (active) on Mucolipin-3, 13.7 µM (active) in test [18] and > 29.9 µM (not active) on Ion channel NompC [19].

In the case of `COC(=O)C12CC3(CCC4C5C(C(OCc6ccccc6)C41)C52)OCCO3` (configuration not stated), the AC50 on Cytochrome P450 2C9 is 5.01 µM (inconclusive).

On to `CN(C)C(CNc1ccc(C(F)(F)F)cn1)c1ccccc1` (configuration not stated), for which the IC50 (in [20]; on Beta-galactosidase) was > 66.6 µM (inactive) throughout. Moreover, the EC50 in test [21] is 2.11 µM (active).

Regarding `N#CC(OC(=O)c1ccccc1)c1cccc([N+](=O)[O-])c1` (configuration not stated), the AC50 in [22] is 7.45 µM (active).

For the origin of these results see ChEMBL document CHEMBL1201862, “PubChem BioAssay data set” (2004).
